The subject of one series is NG108-15 cells. Nature of the series: Activity to accelerate synaptic formation: differentiation of NG108-15 cells, anti-Rab3a immunostaining. Type of series: cell-based, rat. The note with it: Selenoprotein P 4.36 μg/mL. On the procedure:
In order to study the effect of Selenoprotein P on synaptic formation, differentiation to neurons was examined using NG108-15 cells (hybridoma of rat neuroblastoma and rat glioma: ATCC NO. HB-12317) which has widely been used for study of synaptic formation and a receptor. NK108-15 cells were seeded to DME supplemented with 10% fetal calf serum and HAT (hypoxanthine, aminopterin and thymidine) in 35 mm polyornithine-coated dish and incubated at 37° C., 10% CO2. After 1 to 2 days, the culture medium was replaced with DMEM (serum free medium) supplemented with 1% fetal calf serum and HT (hypoxanthine and thymidine) and 0.1 mM dibutyl cyclic AMP (abcAMP) was added to induce differentiation while Selenoprotein P at 4.36 μg/mL was added to the medium followed by culture for 3 days. After culture, the dish attached with a sheet of cells was rinsed twice with phosphate buffered saline (hereinafter referred to as PBS) to wash the culture. Cellular proteins were then fixed with paraformaldehyde adjusted to 4% with PBS. After fixation at room temperature for 30 minutes, the dish was rinsed twice with PBS to remove a fixing solution. […]
The nerve cell bodies had also a number of short neurites. […] A proportion of synapses specifically dyed with the anti-Rab3a antibody was then calculated with Mac SCOPE (manufactured by Mitani Corporation), a software for image analysis for Mackintosh, to measure immunopositive spots. […] Therefore, those spots with R value alone could be extracted with the analysis software and measured. In addition, the number of varicosity with no immunological reaction was measured manually and then a proportion (%) of the number of immunopositive varicosity among a total number of varicosity in the photographed picture was calculated.

Series [1] can be described thus: Cell death-inhibitory activity of purified fractions. The note with it: fractions purified from plasma (Preparation 1). It counts as cell-based.
Series [2] relates to cell culture.
A further series relates to cultured primary neurons. The series is described as follows: Activation of primary neurons by NO (SNAP): mitochondrial dehydrogenase activity, Cell Counting kit-8. Type of series: cell-based. The following applies: mouse primary neurons, 15 hours, fragment 0.26 μM as selenium (FIG. 3). From the text:
In order to study the effect of Selenoprotein P on the neurotic activity of NO as synaptic neurotransmitter, cultured primary neurons were subject to the action of an NO generator, S-nitroso-N-acetyl-DL-penicillamine (SNAP, manufactured by DOJINDO LABORATORIES), in the presence of Selenoprotein P to determine as to whether a respiratory capacity of neuronal mitochondria is altered in the presence of Selenoprotein P. For determination of a respiratory capacity of mitochondria, a kit was used that readily measured the dehydrogenase activity in the mitochondrial inner membrane (Cell Counting kit-8, manufactured by DOJINDO LABORATORIES).
Fetus was removed from C57BL/6 mouse of 14-day pregnancy (purchased from Charles River Japan, Inc.). The cerebral cortex from the fetus was treated and dispersed with 0.25% trypsinized EDAT and then cultured in Neurobasal Medium (Gibco BRL.) supplemented with B27 supplement (Gibco ERL.) in 5% CO2 incubator at 37° C. for culture of primary neurons. […] After developing reaction, each 100 μL of the culture supernatant was transferred to a 96-well microtiter plate and then absorption was measured at a wave-length of 450 nm with a microtiter plate reader with a reference wave-length of 650 nm.

The next series concerns acetylcholine receptors. The series is described as follows: Pilocarpine-induced convulsion in mice (function of acetylcholine receptor). Type of series: in vivo. The following applies: ICR male mice. On the procedure: In order to study the effect of Selenoprotein P on cholinergic neurons, to mice was administered pilocarpine that agonistically acted on acetylcholine receptors present on junctions (synaptic terminal) between neurons and between neurons and muscle to thereby induce convulsion. Pilocarpine, having a parasympathetic nerve-stimulating activity, will induce clonic convulsion in the limbs leading to systemic convulsion when administered to mice.
Twelve ICR male mice (weighing 30 to 43 g; purchased from CLEA Japan, Inc.) of nine weeks old were divided into two groups (6 animals/group) and tested. One hour before administration of pilocarpine, Selenoprotein P prepared at a concentration of 2.5 mg/mL with saline was administered to mice at 0.5 mg of Selenoprotein P per animal (200 μL) as a test group. For a control group, an equivalent amount of saline was administered intraperitoneally. Pilocarpine (pilocarpine hydrochloride, Wako Pure Chemical Industries, Ltd.) was prepared at 100 mg/mL with saline and administered to mice intraperitoneally at 270 to 320 mg/kg. Immediately after administration, mice were photographed with a digital video for record of experiment. Observation was made for 60 minutes after administration of pilocarpine. Time required for developing systemic convulsion and survival of the animals were taken for criteria of assessment. […]

The test system of series [3] is cell culture. The series is described as follows: Toxicity when added to cell culture.

Experimental findings from patent US20110183911A1, “METHOD FOR IMPROVING NEUROTRANSMISSION FAILURE USING A NOVEL AGENT” (JURIDICAL FOUNDATION THE CHEMO-SERO-THERAPEUTIC RESEARCH …, priority 2002, published 2011) are described below.

Read-outs that look alike come from different tables or passages of the source.

On to “Selenoprotein P: selenocysteine-containing plasma protein (SEQ ID NO: 1), full-length 64 kDa, purified from human plasma (Preparation 2)”, for which the “Morphology of differentiated cells (neurites, varicosity)” value in the series with NG108-15 cells (3 days) is “complexity in development of neurites as well as much particulate varicosity”. In addition, the “Rab3a-dyed particles on neurites (FIG. 1)” value with NG108-15 cells (3 days, anti-Rab3a monoclonal antibody) is listed as “a large number of Rab3a-dyed knotty particles on neurites”. The “Proportion of Rab3a-immunopositive cells ± SD” value with NG108-15 cells (differentiation with dibutyl cyclic AMP, culture for 3 days, immunopositive varicosity among total varicosity) is 66.0 ± 2.75%. Moreover, the “Cell death-inhibitory activity per proteins” value in series [1] was “much lower than that of the fragment thereof”. Besides, in the series on cell culture [2], the Toxicity entry is on record as “no such a high toxicity could be observed”. In addition, in the series with cultured primary neurons (SNAP 50 μM, Selenoprotein P or sodium selenite 1 μM), the “Mitochondrial respiratory capacity of the neurons in the presence of NO generator SNAP” value is “significantly increased”. Also, the “Activity of dehydrogenase of the mitochondrial inner membrane (mitochondrial respiratory capacity), without SNAP” value in the series on cultured primary neurons (no SNAP, Selenoprotein P 1 μM) is recorded as “tended to show an increased activity”. Moreover, the “Time for developing systemic convulsion compared to control group” value in the series with acetylcholine receptors (0.5 mg Selenoprotein P per animal 1 hour before pilocarpine) is on record as “significantly shortened”. The “Mortality after challenge with pilocarpine compared to control group (FIG. 2)” value with acetylcholine receptors (0.5 mg Selenoprotein P per animal, observation 60 minutes) is on record as “apparently decreased mortality”.
As to `N[C@@H](C[Se][Se]C[C@H](N)C(=O)O)C(=O)O` [selenocystine], in the series on cell culture [3], the Toxicity entry is on record as “considerably high toxicity”.
